Like-named read-outs stand apart in the source and are kept apart here.

Data on eight compounds can be found in patent US20220062240A1, “METHODS OF TREATING CANCER USING A CLK INHIBITOR” (BioSplice Therapeutics, Inc., priority 2018, published 2022).

Assay [1] concerns nuclear speckles in SW480 cells. As to the kind of experiment: Nuclear speckle staining (phospho-SC35). In kind it is cell-based, human. To be noted: SW480, 6 hours, 0.3-10 μM. Here is the method: […]. The cells were stained with a phospho-SC35 antibody (green) and a Hoechst 33342 nuclear stain (blue). Scale bar, 10 μm.
FIG. 9A is a set of representative immunofluorescence images (×100 magnification) of SW480 cells treated with indicated concentrations for 6 hours. The cells were stained with a phospho-SC35 antibody (green) and a Hoechst 33342 nuclear stain (blue). Scale bar, 10 μm.
[…]. After approximately 6 hr, cells were fixed and stained a phospho-SC35 antibody (Santa Cruz Biotechnology). Cells were then labelled with an Alexa-Fluor 488 secondary antibody (Thermo Fisher) containing DAPI (Thermo Fisher). Cells were imaged at 100× magnification.

Assay [2] relates to SRSF6 and SRSF5 phosphorylation in SW480 cells. As to the kind of experiment: SR phosphorylation immunoblot. In kind it is cell-based, human. The settings on record: SW480, 1 hour. Here is the method:
FIG. 6A is an immunoblot showing phosphorylated SRSF6 and SRSF5 in SW480 cells treated as indicated for 1 hour. Total SRSF5 and R-actin blots were used as loading controls. The blots are representative of two experiments.
First, it was determined that CLK1, CLK2, and CLK3 localized into the nucleus, while CLK4 was predominantly detected in the cytoplasm (FIG. 5). […]. Zhou et al., Chromosoma 122, 191-207, 2013).
(§1) For indicated experiments, cells were pelleted by centrifugation and washed with PBS and protein from the cell pellet was fractionated into cytoplasmic and nuclear fractions using a NE-PER™Nuclear and Cytoplasmic Extraction Reagents kit containing Halt™ protease and phosphatase inhibitors (Thermo Fisher). Protein concentrations of the samples were quantified using the Pierce Micro BCA protein assay kit (Thermo Fisher). […] Primary antibodies were incubated overnight at 4° C., with GAPDH, Lamin B1 or β-actin being used as loading controls (refer to Table 19 for primary antibodies and dilutions used).

The test system of another assay is SW480 cells. Kind of assay: Wnt pathway gene (qRT-PCR) and protein (immunoblot) expression. In kind it is cell-based, human. To be noted: SW480, 24 hours, compared to DMSO. Here is the method:
Fold-change relative to DMSO is shown (n=3 biological replicates per group, Mean±SD, **P<0.01; ***P<0.001, student's two-tailed t-test).
FIG. 6D is an immunoblot showing Wnt pathway-related protein expression in SW480 cells treated as indicated for 24 hours. The proteins were separated into nuclear and cytoplasmic fractions. GAPDH and Lamin B1 represent cytoplasmic and nuclear protein loading controls, respectively. The blots are representative of two experiments.
FIG. 6E is an immunoblot showing Wnt pathway-related protein expression in SW480 cells treated as indicated for 48 hours. The proteins were separated into nuclear and cytoplasmic fractions. GAPDH and Lamin B1 represent cytoplasmic and nuclear protein loading controls, respectively. The blots are representative of two experiments.
The fold-change relative to DMSO is shown (n=3 biological replicates per group, Mean±SD, *P<0.05; **P<0.01; ***P<0.001, student's two-tailed t-test).
FIG. 7C is an immunoblot showing protein expression of hits identified in FIG. 7A. SW480 cells were treated as indicated for 24 hours and proteins were separated into nuclear and cytoplasmic fractions. GAPDH and Lamin B1 represent the cytoplasmic and nuclear protein loading controls, respectively. The blots are representative of two experiments.
as §1
Total RNA was isolated using RNeasy Plus mini kit (Qiagen) or MagMAX Total RNA kit (Thermo Fisher) as per the manufacturers' protocol. cDNA was synthesized using the iScript cDNA Synthesis Kit (Bio-Rad), followed before performing qRT-PCR. Reactions were then run on a real-time PCR system (CFX384; Bio-Rad). Relative gene expression was determined by normalizing to GAPDH using the ΔΔCt method.
(Real-time PCR tracks product formation cycle by cycle.)

The test system of assay [3] is Wnt-responsive Sp5-Luc reporter in SW480 colon carcinoma cells. Kind of assay: Wnt activity screening assay (Sp5-Luc reporter). It counts as cell-based. To be noted: Homo sapiens. An excerpt:
The screening assay for Wnt activity is described as follows. Reporter cell lines can be generated by stably transducing cancer cell lines (e.g., colon cancer) or primary cells (e.g., IEC-6 intestinal cells) with a lentiviral construct that includes a Wnt-responsive promoter driving expression of the firefly luciferase gene.
SW480 colon carcinoma cells were transduced with a lentiviral vector expressing luciferase with a human Sp5 promoter consisting of a sequence of eight TCF/LEF binding sites. […] These stably transduced SW480 cells were expanded in cell culture and used for all further screening activities. […] For Sp5-Luc reporter gene assays, the cells were plated at 4,000 cells/well in 384-well plates with a DMEM medium containing 1% fetal bovine serum, and 1% Penicillin-Streptomycin and incubated for 36 to 48 hours at 37° C. and 5% CO2. Following incubation, 15 μL of BriteLite Plus luminescence reagent (Perkin Elmer) was added to each well of the 384-well assay plates. The plates were placed on an orbital shaker for 2 min and then luminescence was quantified using the Envision (Perkin Elmer) plate reader.

For assay [4], the system named is SW480 colorectal cancer cells. As to the kind of experiment: Gene expression qRT-PCR in SW480 cells. It counts as cell-based. The settings on record: Homo sapiens. How it is done: SW480 colorectal cancer cells were plated at 1×10^4 cells per well into 96-well plates (Olympus). Compounds were diluted in cell culture media and added to the cells at a final concentration of 3 μM. Cells were treated with vehicle (DMSO) and compounds for 24 hours. N=3 biological replicates per conditions.
Following treatment, cells were lysed, and cDNA was generated using the Fastlane Cell cDNA Kit (Qiagen).
384-well PCR plates with pre-spotted primers for CLK1, CLK2, CLK3, DVL2, LRP5, SRSF1, SRSF3, SRSF4, SRSF5, TCF7, TCF7L2 were ordered from Bio-Rad. The generated cDNA, along with a SYBR Green qRT-PCR master mix (SsoAdvanced™ Universal SYBR® Green Supermix, Bio-Rad) was added to the PCR plates.
qRT-PCR was performed on the plates using a CFX384 Touch™ Real-Time PCR Detection System (Bio-Rad) with the manufacturer's recommended thermal cycling conditions.
Data from the qRT-PCR assay was normalized to the GAPDH and HPRT1 housekeeping genes and set gene expression fold change was set relative to vehicle-treated cells using the ΔΔCt analysis method.

Another assay deals with CLK3 (Homo sapiens, UniProt P49761). As to the kind of experiment: CLK3 kinase activity assay (Z-lyte, Ser/Thr 18 peptide).
The target of a further assay is T1, CLK2 (Homo sapiens, UniProt P49760).
T1 construct: purchased Thermo Fisher (Life Technologies), Z'-LYTE Kinase Assay Kits
As to the kind of experiment: CLK2 kinase activity assay (Z-lyte, Ser/Thr 6 peptide). In kind it is biochemical. To be noted: recombinant CLK2 kinase, ATP 60 μM; read-out: EC50. How it is done: All reactions were performed in duplicate.

For another assay, the system named is all 50 cell lines. Kind of assay: CellTiter-Glo Viability Assay, average across all cell lines. It counts as cell-based. To be noted: Homo sapiens; across all 50 cell lines; read-out: average EC50 for inhibition of cancer cell proliferation. How it is done: Fifty-one human cancer cell lines (breast cancer (8 cell lines), colorectal cancer (6 cell lines), haematopoietic & lymphoid tumors (13 cell lines), liver cancer (3 cell lines), lung cancer (4 cell lines), ovarian cancer (4 cell lines), pancreatic cancer (8 cell lines), and prostate cancer (5 cell lines)) were tested to determine the effects of representative compounds of Formulas (I)-(XII) on cellular proliferation, as evaluated using the CellTiter-Glo® Viability Assay.
For the Cell Viability Assays, cells were plated at 300-3,000 cells/well in 384-well plates in their respective media containing 1% Penicillin-Streptomycin and incubated for four days at 37° C. and 5% CO2. Twenty-eight replicates of DMSO-treated cells served as controls and cells treated with compound were performed in duplicate.
After incubation, 10 μL of CellTiter-Glo® (Promega) was added to each well allowed to incubate for approximately 12 minutes. This reagent results in cell lysis and generation of a luminescent signal proportional to the amount of ATP present. The amount of ATP is directly proportional to the number of metabolically active, viable cells present in culture. The CellTiter-Glo® Assay generates a luminescent signal, produced by the luciferase reaction (Promega.com).
After incubation, the luminescence signal was read using an EnVision™ Multilabel Plate Reader (Perkin Elmer). Dose-response curves were generated and EC50 concentration values were calculated using Dotmatics' Studies Software (Bishops Stortford, UK).
Background: In ATP-based viability assays light output follows the ATP content of the culture.

Assay [5] deals with Wnt responsive TOPflash reporter in SW480 colon cancer cells. Kind of assay: TOPflash β-catenin/TCF-responsive reporter assay. It counts as cell-based, human. Here is the method: Human colorectal cancer cell line SW480, stably expressing the Wnt responsive TOPflash promoter linked to luciferase gene (TOPflash) was used along with SW480 stably expressing a control EF1a-Luciferase reporter gene (GenTarget #LVP434) as a counterscreen. […] Cells were plated at ˜10,000 cells/well and incubated for 40 hours. Luminescence was detected using Bright-Glo (Promega Corp.).
For orientation: Reporter assays use an easily measured gene product as a stand-in for the process of interest.

Setting [6] is: SW480 Sp5-Luc reporter, 36 to 48 hours, read-out: EC50.

Sequence of CLK3 (P49761 whole entry): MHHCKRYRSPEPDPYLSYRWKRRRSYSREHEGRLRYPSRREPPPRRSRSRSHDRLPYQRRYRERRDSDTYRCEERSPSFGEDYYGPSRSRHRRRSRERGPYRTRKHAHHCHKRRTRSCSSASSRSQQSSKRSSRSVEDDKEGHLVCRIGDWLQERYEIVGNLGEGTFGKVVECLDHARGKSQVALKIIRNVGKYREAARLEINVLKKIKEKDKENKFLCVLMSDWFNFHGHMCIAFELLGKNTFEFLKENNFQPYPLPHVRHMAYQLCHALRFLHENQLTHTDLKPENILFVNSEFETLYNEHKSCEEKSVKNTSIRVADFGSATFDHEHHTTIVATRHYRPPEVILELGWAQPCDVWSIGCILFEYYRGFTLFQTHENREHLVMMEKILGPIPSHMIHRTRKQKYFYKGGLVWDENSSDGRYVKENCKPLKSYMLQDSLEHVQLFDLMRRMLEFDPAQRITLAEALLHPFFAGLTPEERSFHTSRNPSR
T1 sequence (P49760 whole entry): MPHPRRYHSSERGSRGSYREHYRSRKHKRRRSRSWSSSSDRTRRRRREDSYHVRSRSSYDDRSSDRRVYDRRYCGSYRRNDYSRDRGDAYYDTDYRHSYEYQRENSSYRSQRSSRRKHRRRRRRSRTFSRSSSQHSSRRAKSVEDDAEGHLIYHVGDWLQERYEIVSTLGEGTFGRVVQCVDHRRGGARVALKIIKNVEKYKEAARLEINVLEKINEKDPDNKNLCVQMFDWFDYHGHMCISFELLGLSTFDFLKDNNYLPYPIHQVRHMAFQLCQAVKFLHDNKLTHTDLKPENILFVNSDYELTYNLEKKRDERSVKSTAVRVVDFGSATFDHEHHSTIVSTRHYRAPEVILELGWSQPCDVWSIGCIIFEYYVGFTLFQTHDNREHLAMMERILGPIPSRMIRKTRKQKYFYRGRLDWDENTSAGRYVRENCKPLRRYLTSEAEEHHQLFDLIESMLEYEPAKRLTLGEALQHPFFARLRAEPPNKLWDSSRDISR
Protocol for CLK3: Each compound was dissolved in DMSO as a 10 mM stock and used to prepare compound source plates.
This is a non-radioactive assay using fluorescence resonance energy transfer (FRET) between coumarin and fluorescein to detect kinase activity which is represented as a ratio of coumarin emission/fluorescein emission.
All reactions were performed in duplicate. Unphosphorylated (“0% Control”) and phosphorylated (“100% control”) forms of Ser/Thr 18 served as control reactions. Additionally, an 11-point dose-response curve of Staurosporine (1 uM top) was run to serve as a positive compound control.
After incubation, Development Reagent A was diluted in Development Buffer then added to the reaction and allowed to further incubate for one hour at room temperature.
Dose-response curves were generated and inhibitory concentration (IC50) values were calculated using non-linear regression curve fit in the Dotmatics' Studies Software (Bishops Stortford, UK).
Compounds were acoustically transferred on 1536-well plates (Echo 550, LabCyte) instrument. Kinase, peptide, and ATP reagents from the Z′-LYTE Kinase Assay Kits (Thermo Fisher) were dispensed onto the compound plates using an EL406 liquid dispenser (BioTek). Plates were incubated in the dark at room temperature for 1 hr. Development reagent was added to the plates and then incubated in the dark at room temperature for 1 hr. Fluorescence signal form the plate was then read using an EnVision Multilabel Plate Reader (Perkin Elmer).

For the compound `CNC(=O)c1ccc(Nc2nc(OC3CCCC3)c3c(-c4ccc5nc(C)oc5c4)c[nH]c3n2)c(OC)c1` [CC-671, reference compound], the “enlargement of nuclear speckles” value in assay [1] is “only at higher doses of 10 μM and 3 μM”. In addition, the “SR phosphorylation (SRSF6, SRSF5)” value in [2] is “not as effective as Compound 12”. In addition, in the assay on SW480 cells, the “gene expression of AXIN2, LEF1, MYC, TCF7, CTNNB1 and TCF7L2” value is “minimal effect”.

`CCS(=O)(=O)c1cccc(-c2cc(C(=O)NC3CCN(C)CC3)c(C)c3[nH]c4ncc(C)cc4c23)c1` [Compound 24]: the EC50 in assay [3] (SW480) was found to be 0.32 µM; on CLK3, 0.07 µM; at CLK2 it was 0.003 µM. Besides, the fold induction at 3 µM was 0.35 in assay [4] (SW480, 24 h, read-out: gene expression fold change CLK1); 0.19 in assay [4] (SW480, 24 h, read-out: gene expression fold change CLK2); 0.19 in assay [4] (SW480, 24 h, read-out: gene expression fold change CLK3); 0.39 in [4] (SW480, 24 h, read-out: gene expression fold change DVL2); 0.34 in assay [4] (SW480, 24 h, read-out: gene expression fold change LRP5); 0.46 in [4] (SW480, 24 h, read-out: gene expression fold change SRSF1). Moreover, the fold induction at 3 µM stood at 0.31 in assay [4] (SW480, 24 h, read-out: gene expression fold change SRSF3); 0.37 in [4] (SW480, 24 h, read-out: gene expression fold change SRSF4); 0.49 in assay [4] (SW480, 24 h, read-out: gene expression fold change SRSF5); 0.49 in assay [4] (SW480, 24 h, read-out: gene expression fold change TCF7); 0.33 in [4] (SW480, 24 h, read-out: gene expression fold change TCF7L2).

Take `Cc1nc(Nc2n[nH]c3c2CN(C(=O)N[C@H](CN(C)C)c2ccccc2)C3(C)C)c2sccc2n1` [Compound 25]: the EC50 in assay [3] (setting [6]) worked out at 0.114 µM; on CLK3, 0.144 µM; on CLK2 it was 0.01 µM. Moreover, the fold induction at 3 µM in assay [4] (SW480, 3 μM, 24 hours, relative to DMSO, read-out: gene expression fold change CLK1) was found to be 0.07; in assay [4] (SW480, 3 μM, 24 hours, relative to DMSO, read-out: gene expression fold change CLK2), 0.09; in assay [4] (SW480, 3 μM, 24 hours, relative to DMSO, read-out: gene expression fold change CLK3) it was 0.08; in assay [4] (SW480, 3 μM, 24 hours, relative to DMSO, read-out: gene expression fold change DVL2) it was 0.21; in assay [4] (SW480, 3 μM, 24 hours, relative to DMSO, read-out: gene expression fold change LRP5), 0.09; in assay [4] (SW480, 3 μM, 24 hours, relative to DMSO, read-out: gene expression fold change SRSF1), 0.2. Also, the fold induction at 3 µM in assay [4] (SW480, 3 μM, 24 hours, relative to DMSO, read-out: gene expression fold change SRSF3) is 0.1; in assay [4] (SW480, 3 μM, 24 hours, relative to DMSO, read-out: gene expression fold change SRSF4) it was 0.09; in [4] (SW480, 3 μM, 24 hours, relative to DMSO, read-out: gene expression fold change SRSF5), 0.19; in assay [4] (SW480, 3 μM, 24 hours, relative to DMSO, read-out: gene expression fold change TCF7), 0.21; in assay [4] (SW480, 3 μM, 24 hours, relative to DMSO, read-out: gene expression fold change TCF7L2) it was 0.11.

`CC(C)CC(=O)Nc1cncc(-c2cc3c(-c4nc5c(-c6cc(F)cc(OCCN7CCCC7)c6)cncc5[nH]4)n[nH]c3cn2)c1` [Compound 45]: the results for the EC50 (in [3] (setting [6]); in the assay on all 50 cell lines) were > 10 µM and 8.49 µM, respectively.

Regarding `CN(C)CCOc1cncc(-c2cc3c(-c4cc5c(-c6cccnc6)ccnc5[nH]4)n[nH]c3cn2)c1` [Compound 49], the EC50 was > 10 µM in assay [3] (setting [6]), 0.0193 µM on CLK3, 0.0022 µM on CLK2 and 9.72 µM with all 50 cell lines.

Consider `Cc1ncc(-c2cnc3[nH]nc(-c4cc5c(-c6cc(F)cc(NCCN(C)C)c6)ccnc5[nH]4)c3c2)n1C` [Compound 52], for which the EC50 on CLK3 came to 0.0266 µM; on CLK2, 0.0019 µM; in the assay with all 50 cell lines, 8.46 µM.

`O=C(Nc1c[nH]nc1-c1nc2c(-c3cccc(F)c3)cncc2[nH]1)C1CCNCC1` [Compound 89]: the EC50 worked out at 2.17 µM in assay [3] (setting [6]), 0.0305 µM on CLK3, 0.0022 µM at CLK2 and 8.5 µM in the assay with all 50 cell lines.

In [5], `C[C@H]1[C@H]2N(C(=O)CN(C)N2C(=O)NCc2ccccc2)[C@@H](Cc2ccc(OP(=O)(O)O)cc2)C(=O)N1Cc1cccc2cccnc12` [PRI-724] yielded an EC50 of 1.06 µM.
